Patent US9492454B2, “Use of pemirolast in the treatment of acute asthma” (RSPR PHARMA AB, priority 2014, dated 2016)
“Also recorded” adds a separate entry of the source. Like-named read-outs stand apart in the source and are kept apart here.

Legend:
[1] = design: species or system Beagles (dog); details: dog, in vivo
Excerpt: There were no major differences in kinetics between males and females.

hERG potassium channel = hERG potassium channel (Homo sapiens, UniProt Q12809)
Experimental: This study was performed by PhysioStim, France, a GLP compliant facility.
The effects of pemirolast on hERG currents in HEK-293 cells stably expressing the hERG potassium channel were studied using patch-clamp technique.

[2] = system: isolated guinea pig trachea; details: trachea pre-constricted with acetylcholine, histamine, serotonin and barium chloride; cited from earlier work
[3] = Single and multiple-dose open safety, tolerability and pharmacokinetic study of pemirolast potassium tablets, with linear Cmax extrapolation; type: in vivo, human; details: linear extrapolation from 42.5 mg multiple dose
Experimental: This study comprised 18 healthy male subjects, 18-45 years of age, and was a single and multiple-dose, open study assessing the safety and tolerability of pemirolast potassium tablets (10 mg, Ulgixal™ tablets) with the doses 10, 30 and 50 mg (containing 8.5, 25.5 and 42.5 mg pemirolast free acid, respectively) b.i.d. (6 subjects in each dose group). The subjects received a single dose on the first day, then b.i.d. for three days and a single dose on the fifth day. The study was performed at the Berzelius Clinical Research Center AB in Linköping, Sweden. All laboratory pharmacokinetic analyses were performed by Quintiles AB, Uppsala, Sweden. Pharmacokinetic calculations were performed by Pharm Assist Sweden AB, Uppsala, Sweden. Mean Cmax data after multiple dosing are shown in and Table 1, and mean plasma concentrations over time on Day 5 are shown in FIG. 1. Based on these clinical data, Cmax predictions were made (assumption: Linear pharmacokinetics when extrapolating to higher dose levels) and are presented in Table 2.

[4] = system: asthma patients challenged with mannitol inhalation; assay: Clinical trial: mannitol challenge test in asthma patients (PD15, FEV1, safety); type: in vivo, human; details: for long-term prophylactic effect on mannitol-induced asthma (mannitol PD15 at placebo visit): n=4
Experimental: This study comprised male and female asthma patients (18 to 46 years of age) with a positive asthma test (as determined by a mannitol challenge test (vide infra) performed within 15 days prior to enrolment at the first screening visit, Visit 1).
It was a double-blind, randomized, placebo-controlled, cross-over trial assessing the efficacy of orally administered single doses of placebo and 40 mg and 400 mg of pemirolast (immediate release tablets containing pemirolast sodium hemihydrate, as well as microcrystalline cellulose, mannitol, copovidone fine, croscarmellose sodium, anhydrous colloidal silica and magnesium stearate) in patients challenged with mannitol inhalation as described below.
The patients were exposed to the different treatments at three separate hospital visits at least 2 (mean 6.8, median 6) days apart. The data reported in FIGS. 5 and 6 below represent the patients that received placebo treatment at the first visit (n=8) or placebo at the second visit (after 40 mg at the first visit (n=4) or after 400 mg at the first visit (n=4)).
All doses were administered 3 hours before initiation of the mannitol challenge test to ensure peak plasma concentrations of pemirolast when the mannitol challenge was performed (blood samples for analysing plasma concentrations of pemirolast were collected 3 hours after drug administration).
There were 5 visits during the trial: A screening visit (Visit 1, within 15 days before Visit 2), three visits for treatment with Investigational Medicinal Products (IMP; pemirolast 40 or 400 mg, or placebo) (Visit 2-4, spaced at least 2 days apart), and a final follow-up visit by telephone (Visit 5, at least 2, but less than 4 days after Visit 4 and within 30 days of Visit 2).
The primary endpoint in the study was the Provocation Dose (PD) of mannitol resulting in a 15% fall in Forced Expiratory Volume during 1 second (FEV1; values given in Litres (L)) (PD15 for mannitol), which is recognised by regulatory authorities as an acceptable method to evaluate potential efficacy of asthma drugs (European Medicines Agency. Note for Guidance on Clinical Investigation of Medicinal Products for Treatment of Asthma, 2013).
The mannitol challenge test (Aridol®, Pharmaxis Ltd, Frenchs Forest, Sydney Australia) was performed as follows: application of nose clip and challenge with 0 (empty capsule acting as placebo), 5, 10, 20, 40, 80, 160, 160, 160 and 160 mg of mannitol via the Halermatic (the 80 and 160 mg doses were given as multiple doses of 40 mg capsules). After inhalation, subjects were instructed to hold their breath for 5 seconds.
At least 2 repeatable FEV1 manoeuvres were performed 60 seconds after each dose and the highest FEV1 was used in the calculation. […]

[5] = twice daily 50 mg doses in humans; cited from earlier work
[6] = Later pharmacokinetic studies in healthy volunteers (multiple doses); type: in vivo, human; details: 80, 200 and 320 mg b.i.d. for three and a half days
prostaglandin D2 = assay: Urinary excretion of 11β-PGF2α (PGD2 metabolite, mast cell biomarker), EIA; type: in vivo, human; details: for baseline production of PGD2 in asthmatics without ongoing attacks: n=22-24
Experimental: A secondary endpoint in the study was to analyse changes in urinary excretion of a metabolite (11β-prostaglandin (PG) F2α) of the lung mast cell mediator/biomarker prostaglandin D2. 11β-PGF2α analysis was performed in unextracted urine samples using a validated enzyme immunoassays (EIA) kit from Cayman Chemical, Ann Arbor, Mich., USA (Item no 516521). Absolute values of the mediators were expressed as nanograms 11β-PGF2α per millimole creatinine.
• a) Withdrawal from trial visit criteria to be checked • b) Urine sampling for 11β-PGF2α analysis • c) Blood sampling for haematology and blood biochemistry • d) Vital signs, physical examination, adverse events and concomitant medication 2) Administration of IMP 3 hours (+/−10 min) before the mannitol challenge 3) Before mannitol challenge: • a) <10 min before: Urine sampling for 11β-PGF2α analysis • b) <10 min before: Blood sampling for analysis of plasma pemirolast concentration 4) Mannitol test 3 hours (+/−10 min) after IMP administration 5) After mannitol challenge: • a) Urine sampling for 11β-PGF2α, 30 minutes after mannitol challenge • b) Pregnancy test (Visit 4 only, in addition to prior to enrolment) • e) Recording of concomitant medication just before sending the patient home • f) Reporting of AEs just before sending the subject home
Prostaglandin D2 (PGD2) is released from mast cells (e.g. in the lung) and is known as a mediator of asthmatic bronchoconstriction (Hardy et al, N. Engl. J. Med., 311, 209 (1984)). Urinary levels of the PGD2 metabolite 11β-PGF2α increase acutely during asthmatic attacks, including those induced by mannitol inhalation (Brannan et al, Eur. Respir. J., 22, 491 (2003)). This PGD2 metabolite is therefore used as a biomarker for mast cell activation in asthmatics.

human bronchial tissue = assay: Bronchodilatory effect on pre-contracted isolated human bronchi (myograph, isometric tension); type: cell-based; details: for effect on bronchoconstriction induced by carbachol: carbachol 3 μM; for effect on bronchoconstriction induced by histamine: histamine 1 μM
isolated tracheal muscle = details: isolated guinea pig tracheal muscle, cited from earlier work
[7] = system: antigen- and PAF-induced bronchoconstriction; details: pre-administration, guinea pigs in vivo; cited from earlier work

Sequence of hERG potassium channel (Q12809 whole entry): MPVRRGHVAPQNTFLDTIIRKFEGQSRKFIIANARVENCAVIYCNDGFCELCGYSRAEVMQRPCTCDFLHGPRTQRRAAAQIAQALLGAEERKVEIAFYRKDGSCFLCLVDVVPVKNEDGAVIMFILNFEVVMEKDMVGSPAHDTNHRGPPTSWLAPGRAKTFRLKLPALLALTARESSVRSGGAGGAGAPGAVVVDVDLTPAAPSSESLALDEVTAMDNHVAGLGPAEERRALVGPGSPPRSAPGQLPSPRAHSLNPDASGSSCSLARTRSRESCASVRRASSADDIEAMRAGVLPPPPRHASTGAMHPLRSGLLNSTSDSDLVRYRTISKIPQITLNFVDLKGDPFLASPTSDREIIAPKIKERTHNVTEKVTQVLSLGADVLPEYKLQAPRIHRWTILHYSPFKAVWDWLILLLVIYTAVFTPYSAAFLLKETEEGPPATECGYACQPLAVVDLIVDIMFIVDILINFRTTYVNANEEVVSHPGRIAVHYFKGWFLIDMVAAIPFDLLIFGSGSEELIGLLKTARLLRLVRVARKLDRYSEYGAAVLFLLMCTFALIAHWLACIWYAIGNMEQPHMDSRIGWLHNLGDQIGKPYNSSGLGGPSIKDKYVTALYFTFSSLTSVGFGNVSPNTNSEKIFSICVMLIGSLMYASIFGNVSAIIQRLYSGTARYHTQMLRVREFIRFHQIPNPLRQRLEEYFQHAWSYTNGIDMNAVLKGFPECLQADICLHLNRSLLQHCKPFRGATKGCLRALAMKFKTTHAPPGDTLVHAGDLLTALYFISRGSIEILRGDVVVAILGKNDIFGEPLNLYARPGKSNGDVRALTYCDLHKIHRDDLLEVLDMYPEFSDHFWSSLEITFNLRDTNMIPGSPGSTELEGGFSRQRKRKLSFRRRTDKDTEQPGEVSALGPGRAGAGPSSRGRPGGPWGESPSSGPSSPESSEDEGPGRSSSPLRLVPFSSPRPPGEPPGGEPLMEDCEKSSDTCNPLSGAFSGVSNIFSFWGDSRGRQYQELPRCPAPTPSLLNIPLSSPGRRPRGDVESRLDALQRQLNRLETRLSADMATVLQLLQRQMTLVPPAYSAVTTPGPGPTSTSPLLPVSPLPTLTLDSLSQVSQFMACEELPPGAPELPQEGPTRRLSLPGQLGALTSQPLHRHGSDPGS

## Cc1cccn2c(=O)c(-c3nnn[nH]3)cnc12 [pemirolast potassium]
[1]
  safe chronic dose in dogs: 75 mg/kg daily
hERG potassium channel; 2.7 μg/mL
  decrease of hERG tail current amplitude: 5.4%
hERG potassium channel; 8 μg/mL
  decrease of hERG tail current amplitude: 10.2%
hERG potassium channel; 26.6 μg/mL
  decrease of hERG tail current amplitude: 14.1%
hERG potassium channel; 79.9 μg/mL
  decrease of hERG tail current amplitude: 19.0%

## Cc1cccn2c(=O)c(-c3nnn[nH]3)cnc12 [pemirolast]
[2]
  potency relative to theophylline: one seventh
[3]; predicted for 125 mg
  Predicted Cmax: 10070 ng/mL
[3]; predicted for 200 mg
  Predicted Cmax: 16120 ng/mL
[3]; predicted for 400 mg
  Predicted Cmax: 32230 ng/mL
[4]; 3 hour pre-treatment, oral single dose (pemirolast sodium hemihydrate tablets), asthma patients
  mannitol PD15: increased
[4]; placebo treatment preceded by 40 mg dose p.o.
  long-term prophylactic effect on mannitol-induced asthma (mannitol PD15 at placebo visit): not seen
[4]; single 400 mg dose p.o. given at least 3 days before placebo/mannitol
  long-term prophylactic effect on mannitol-induced asthma (mannitol PD15 at placebo visit): resulted in a prophylactic effect; also recorded: tolerated a much higher dose of mannitol
[4]; single oral doses 40 mg and 400 mg, asthma patients
  adverse events, vital signs, physical examination, haematology and blood biochemistry: no serious adverse events
[5]
  direct bronchodilator activity when used clinically: no direct bronchodilator activity
[6]
  safety and tolerability: safe and well-tolerated
Prostaglandin D2; 3 hours after administration of 40 mg
  baseline production of PGD2 in asthmatics without ongoing attacks: not
Prostaglandin D2; 3 hours after administration of 400 mg
  baseline production of PGD2 in asthmatics without ongoing attacks: significantly reduced
Prostaglandin D2; patients treated at least 3 days before with 40 mg or 400 mg, 4+4 patients
  urinary levels of the PGD2 biomarker (11β-PGF2α), 400 mg versus 40 mg previous treatment: did not differ
Human bronchial tissue; 10 μg/mL pemirolast, 100 nM U-46619, n=2
  effect on bronchoconstriction induced by U-46619: partially reversed
Human bronchial tissue; 10 μg/mL pemirolast, KCl 30 mM, n=2
  effect on bronchoconstriction induced by potassium chloride: no effect
Human bronchial tissue; 10 μg/mL pemirolast, n=4
  effect on bronchoconstriction induced by carbachol: no effect
Human bronchial tissue; 10 μg/mL pemirolast, n=3
  effect on bronchoconstriction induced by histamine: no effect
Human bronchial tissue; 10 μg/mL pemirolast, leukotriene D4 1 nM, n=3
  effect on bronchoconstriction induced by leukotriene D4: no effect
Human bronchial tissue; 10 μg/ml pemirolast, PGF2α 3 μM pre-contraction, within 15 min, n=4, vehicle 6.8±3.1%
  reversal of PGF2α-induced bronchoconstriction (force): 21.5±4.4%
Human bronchial tissue; 110 μg/mL pemirolast (cumulative), PGF2α 3 μM pre-contraction, within 40 min, n=4, vehicle 18.6±4.9%
  reduction of PGF2α-induced bronchoconstriction (force): 72.0±12.6%
Human bronchial tissue; 110 μg/mL pemirolast, 100 nM U-46619
  effect on bronchoconstriction induced by U-46619: partial reversal
Human bronchial tissue; 110 μg/mL pemirolast, KCl 30 mM
  effect on the response to KCl: little effect
Human bronchial tissue; 110 μg/mL pemirolast
  effect on bronchoconstriction induced by carbachol: partial reversal
  effect on bronchoconstriction induced by histamine: partial reversal
Human bronchial tissue; 110 μg/mL pemirolast, leukotriene D4 1 nM
  effect on the response to leukotriene D4: little effect
Isolated tracheal muscle; much higher concentrations than 10 μg/mL
  effect on bronchoconstriction: some effect
Isolated tracheal muscle; pre-treatment at 10 μg/mL
  effect on bronchoconstriction induced by PGF2α: no effect
  effect on bronchoconstriction induced by leukotriene D4: no effect
[7]
  PAF-induced bronchoconstriction: inhibited
  antigen-induced bronchoconstriction: inhibited
